What was measured:
[1] = molecular target: Phosphatidylinositol 4-phosphate 5-kinase type-1 alpha (Homo sapiens) (UniProt Q99755); details: at 10 µM
[2] = system: Epidermal growth factor receptor (Homo sapiens), P00533 [UNDEFINED MUTATION]; experiment: Selectivity interaction (KinomeScan (DiscoverX)) EUB0000229b EGFR; details: at 1 µM
[3] = molecular target: T1, Serine/threonine-protein kinase BRSK1 (Homo sapiens) (UniProt Q8TDC3); details: at 10 µM
T1 sequence (whole entry): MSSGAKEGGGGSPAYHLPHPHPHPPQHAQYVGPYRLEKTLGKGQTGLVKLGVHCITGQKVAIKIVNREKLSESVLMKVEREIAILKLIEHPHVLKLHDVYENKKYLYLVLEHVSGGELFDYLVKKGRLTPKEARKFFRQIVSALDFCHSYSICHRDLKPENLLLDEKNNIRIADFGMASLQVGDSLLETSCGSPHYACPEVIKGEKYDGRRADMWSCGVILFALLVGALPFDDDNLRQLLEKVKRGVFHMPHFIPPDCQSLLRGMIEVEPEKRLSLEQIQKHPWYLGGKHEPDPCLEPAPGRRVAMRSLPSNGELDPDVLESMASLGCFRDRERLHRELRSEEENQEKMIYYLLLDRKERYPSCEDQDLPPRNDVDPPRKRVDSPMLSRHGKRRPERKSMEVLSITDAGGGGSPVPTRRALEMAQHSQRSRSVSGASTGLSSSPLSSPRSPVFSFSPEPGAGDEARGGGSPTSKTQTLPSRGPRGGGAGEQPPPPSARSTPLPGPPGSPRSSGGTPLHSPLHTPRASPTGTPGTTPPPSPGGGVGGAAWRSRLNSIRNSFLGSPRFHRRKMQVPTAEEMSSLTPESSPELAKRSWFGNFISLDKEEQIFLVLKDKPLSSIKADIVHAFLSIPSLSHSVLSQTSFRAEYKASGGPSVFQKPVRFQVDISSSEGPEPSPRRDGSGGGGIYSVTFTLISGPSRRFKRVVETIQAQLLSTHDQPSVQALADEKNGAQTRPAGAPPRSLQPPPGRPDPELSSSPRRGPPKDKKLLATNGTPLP

[4] = molecular target: Glycogen synthase kinase-3 alpha (Homo sapiens, UniProt P49840); details: at 10 µM
[5] = molecular target: T2, Tyrosine-protein kinase receptor TYRO3 (Homo sapiens) (UniProt Q06418); experiment: Selectivity interaction (Kinase panel (Z-LYTE Assay)) EUB0001632a TYRO3; details: at 10 µM
T2 sequence (whole entry): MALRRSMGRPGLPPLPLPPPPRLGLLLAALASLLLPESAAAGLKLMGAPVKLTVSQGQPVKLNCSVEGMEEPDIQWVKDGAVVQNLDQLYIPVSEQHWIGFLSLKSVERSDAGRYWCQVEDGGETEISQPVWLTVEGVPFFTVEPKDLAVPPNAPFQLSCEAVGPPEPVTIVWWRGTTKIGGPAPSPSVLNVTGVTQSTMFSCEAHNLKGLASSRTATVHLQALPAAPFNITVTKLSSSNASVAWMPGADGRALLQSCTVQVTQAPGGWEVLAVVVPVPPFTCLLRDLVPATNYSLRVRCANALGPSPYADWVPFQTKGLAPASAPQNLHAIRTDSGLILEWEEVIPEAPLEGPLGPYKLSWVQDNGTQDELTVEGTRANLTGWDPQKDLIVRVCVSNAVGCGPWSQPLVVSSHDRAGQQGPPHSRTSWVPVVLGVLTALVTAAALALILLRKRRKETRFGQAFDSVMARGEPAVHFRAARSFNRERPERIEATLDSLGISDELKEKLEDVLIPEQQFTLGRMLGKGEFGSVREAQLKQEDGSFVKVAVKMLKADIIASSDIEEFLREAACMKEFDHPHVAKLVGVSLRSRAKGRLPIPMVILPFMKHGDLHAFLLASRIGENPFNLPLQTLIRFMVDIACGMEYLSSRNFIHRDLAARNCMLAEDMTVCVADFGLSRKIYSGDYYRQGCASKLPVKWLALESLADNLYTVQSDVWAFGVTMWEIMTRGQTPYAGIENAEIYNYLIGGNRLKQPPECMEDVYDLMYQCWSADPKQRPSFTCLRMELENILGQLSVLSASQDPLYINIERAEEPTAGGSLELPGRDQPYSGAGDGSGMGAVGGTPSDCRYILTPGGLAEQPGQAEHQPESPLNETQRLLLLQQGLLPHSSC

KCNQ1 = KCNQ1 (Homo sapiens, UniProt P51787); experiment: Selectivity interaction (Panel of kinases, GPCRs, ion channels and transporters (enzymatic assay)) EUB0000223bCl KCNQ1
[6] = molecular target: Phosphatidylinositol 3-kinase catalytic subunit type 3 (Homo sapiens, UniProt Q8NEB9); experiment: Selectivity interaction (KinomeScan (DiscoverX)) EUB0001049a PIK3C3; details: at 1 µM
[7] = molecular target: Histone-lysine N-methyltransferase, H3 lysine-36 specific (Homo sapiens) (UniProt Q96L73); experiment: Selectivity interaction (Methyltransferase screen (radiometric assays, panel of 8 PRMTs, 21 protein lysine methyltransferases, 3 DNA methyltransferases, and one RNA methyltransferase)) EUB0000271b NSD1
[8] = molecular target: Tyrosine-protein kinase HCK (Homo sapiens) (UniProt P08631); experiment: Selectivity interaction (KinomeScan (DiscoverX)) EUB0000695a HCK; details: at 100 nM
[9] = molecular target: T3, Mitogen-activated protein kinase 15 (Homo sapiens) (UniProt Q8TD08); experiment: Selectivity interaction (KinomeScan (DiscoverX)) EUB0000618a MAPK15; details: at 10 µM
T3 sequence (whole entry): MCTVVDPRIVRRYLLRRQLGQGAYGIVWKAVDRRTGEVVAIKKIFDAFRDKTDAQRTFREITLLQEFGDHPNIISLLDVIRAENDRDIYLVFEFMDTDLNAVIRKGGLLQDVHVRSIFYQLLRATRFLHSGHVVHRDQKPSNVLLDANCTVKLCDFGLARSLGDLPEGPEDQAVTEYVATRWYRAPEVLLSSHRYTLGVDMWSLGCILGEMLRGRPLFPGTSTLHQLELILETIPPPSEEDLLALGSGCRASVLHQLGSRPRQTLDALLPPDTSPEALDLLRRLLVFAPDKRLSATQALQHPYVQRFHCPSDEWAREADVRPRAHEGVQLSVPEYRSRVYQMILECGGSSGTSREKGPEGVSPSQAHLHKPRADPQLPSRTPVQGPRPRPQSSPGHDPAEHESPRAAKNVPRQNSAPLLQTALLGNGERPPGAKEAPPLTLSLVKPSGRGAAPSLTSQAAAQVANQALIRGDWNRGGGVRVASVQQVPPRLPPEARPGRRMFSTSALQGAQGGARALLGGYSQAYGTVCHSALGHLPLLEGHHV

[10] = molecular target: Mitogen-activated protein kinase kinase kinase 9 (Homo sapiens) (UniProt P80192); experiment: Selectivity interaction (Ambit KINOMEscan and KiNATiv profiling in Jurkat cells) EUB0000090b MAP3K9; format: cell-based; details: at 1 µM
Sequence of Mitogen-activated protein kinase kinase kinase 9 (Homo sapiens) (P80192 whole entry, looked up): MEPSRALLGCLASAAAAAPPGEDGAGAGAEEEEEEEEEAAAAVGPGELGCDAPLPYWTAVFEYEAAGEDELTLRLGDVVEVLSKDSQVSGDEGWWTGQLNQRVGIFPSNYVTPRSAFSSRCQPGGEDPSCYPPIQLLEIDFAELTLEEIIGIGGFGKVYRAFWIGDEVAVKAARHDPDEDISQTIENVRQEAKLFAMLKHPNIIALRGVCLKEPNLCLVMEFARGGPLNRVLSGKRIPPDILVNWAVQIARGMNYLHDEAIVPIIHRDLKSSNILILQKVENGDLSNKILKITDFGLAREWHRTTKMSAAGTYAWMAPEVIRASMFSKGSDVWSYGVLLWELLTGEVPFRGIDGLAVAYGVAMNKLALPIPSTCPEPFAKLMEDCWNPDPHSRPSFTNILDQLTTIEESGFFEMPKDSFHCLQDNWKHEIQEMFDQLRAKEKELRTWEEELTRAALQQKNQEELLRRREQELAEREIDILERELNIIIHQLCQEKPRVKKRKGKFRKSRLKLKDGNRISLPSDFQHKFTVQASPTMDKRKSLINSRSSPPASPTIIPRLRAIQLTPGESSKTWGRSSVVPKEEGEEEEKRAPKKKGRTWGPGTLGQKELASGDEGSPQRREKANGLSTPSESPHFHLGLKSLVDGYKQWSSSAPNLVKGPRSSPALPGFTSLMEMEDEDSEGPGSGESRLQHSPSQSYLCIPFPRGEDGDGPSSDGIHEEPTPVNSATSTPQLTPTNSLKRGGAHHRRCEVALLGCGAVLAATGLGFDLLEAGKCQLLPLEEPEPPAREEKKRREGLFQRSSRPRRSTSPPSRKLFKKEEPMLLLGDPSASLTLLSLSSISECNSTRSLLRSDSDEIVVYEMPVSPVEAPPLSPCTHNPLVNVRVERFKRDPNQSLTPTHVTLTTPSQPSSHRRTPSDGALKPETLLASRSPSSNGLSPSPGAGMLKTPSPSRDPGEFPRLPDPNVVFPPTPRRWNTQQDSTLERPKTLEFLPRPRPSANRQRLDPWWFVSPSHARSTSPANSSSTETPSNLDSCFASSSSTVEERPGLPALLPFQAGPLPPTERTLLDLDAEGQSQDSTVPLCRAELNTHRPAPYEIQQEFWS

Sequence of Histone-lysine N-methyltransferase, H3 lysine-36 specific (Homo sapiens) (Q96L73 whole entry): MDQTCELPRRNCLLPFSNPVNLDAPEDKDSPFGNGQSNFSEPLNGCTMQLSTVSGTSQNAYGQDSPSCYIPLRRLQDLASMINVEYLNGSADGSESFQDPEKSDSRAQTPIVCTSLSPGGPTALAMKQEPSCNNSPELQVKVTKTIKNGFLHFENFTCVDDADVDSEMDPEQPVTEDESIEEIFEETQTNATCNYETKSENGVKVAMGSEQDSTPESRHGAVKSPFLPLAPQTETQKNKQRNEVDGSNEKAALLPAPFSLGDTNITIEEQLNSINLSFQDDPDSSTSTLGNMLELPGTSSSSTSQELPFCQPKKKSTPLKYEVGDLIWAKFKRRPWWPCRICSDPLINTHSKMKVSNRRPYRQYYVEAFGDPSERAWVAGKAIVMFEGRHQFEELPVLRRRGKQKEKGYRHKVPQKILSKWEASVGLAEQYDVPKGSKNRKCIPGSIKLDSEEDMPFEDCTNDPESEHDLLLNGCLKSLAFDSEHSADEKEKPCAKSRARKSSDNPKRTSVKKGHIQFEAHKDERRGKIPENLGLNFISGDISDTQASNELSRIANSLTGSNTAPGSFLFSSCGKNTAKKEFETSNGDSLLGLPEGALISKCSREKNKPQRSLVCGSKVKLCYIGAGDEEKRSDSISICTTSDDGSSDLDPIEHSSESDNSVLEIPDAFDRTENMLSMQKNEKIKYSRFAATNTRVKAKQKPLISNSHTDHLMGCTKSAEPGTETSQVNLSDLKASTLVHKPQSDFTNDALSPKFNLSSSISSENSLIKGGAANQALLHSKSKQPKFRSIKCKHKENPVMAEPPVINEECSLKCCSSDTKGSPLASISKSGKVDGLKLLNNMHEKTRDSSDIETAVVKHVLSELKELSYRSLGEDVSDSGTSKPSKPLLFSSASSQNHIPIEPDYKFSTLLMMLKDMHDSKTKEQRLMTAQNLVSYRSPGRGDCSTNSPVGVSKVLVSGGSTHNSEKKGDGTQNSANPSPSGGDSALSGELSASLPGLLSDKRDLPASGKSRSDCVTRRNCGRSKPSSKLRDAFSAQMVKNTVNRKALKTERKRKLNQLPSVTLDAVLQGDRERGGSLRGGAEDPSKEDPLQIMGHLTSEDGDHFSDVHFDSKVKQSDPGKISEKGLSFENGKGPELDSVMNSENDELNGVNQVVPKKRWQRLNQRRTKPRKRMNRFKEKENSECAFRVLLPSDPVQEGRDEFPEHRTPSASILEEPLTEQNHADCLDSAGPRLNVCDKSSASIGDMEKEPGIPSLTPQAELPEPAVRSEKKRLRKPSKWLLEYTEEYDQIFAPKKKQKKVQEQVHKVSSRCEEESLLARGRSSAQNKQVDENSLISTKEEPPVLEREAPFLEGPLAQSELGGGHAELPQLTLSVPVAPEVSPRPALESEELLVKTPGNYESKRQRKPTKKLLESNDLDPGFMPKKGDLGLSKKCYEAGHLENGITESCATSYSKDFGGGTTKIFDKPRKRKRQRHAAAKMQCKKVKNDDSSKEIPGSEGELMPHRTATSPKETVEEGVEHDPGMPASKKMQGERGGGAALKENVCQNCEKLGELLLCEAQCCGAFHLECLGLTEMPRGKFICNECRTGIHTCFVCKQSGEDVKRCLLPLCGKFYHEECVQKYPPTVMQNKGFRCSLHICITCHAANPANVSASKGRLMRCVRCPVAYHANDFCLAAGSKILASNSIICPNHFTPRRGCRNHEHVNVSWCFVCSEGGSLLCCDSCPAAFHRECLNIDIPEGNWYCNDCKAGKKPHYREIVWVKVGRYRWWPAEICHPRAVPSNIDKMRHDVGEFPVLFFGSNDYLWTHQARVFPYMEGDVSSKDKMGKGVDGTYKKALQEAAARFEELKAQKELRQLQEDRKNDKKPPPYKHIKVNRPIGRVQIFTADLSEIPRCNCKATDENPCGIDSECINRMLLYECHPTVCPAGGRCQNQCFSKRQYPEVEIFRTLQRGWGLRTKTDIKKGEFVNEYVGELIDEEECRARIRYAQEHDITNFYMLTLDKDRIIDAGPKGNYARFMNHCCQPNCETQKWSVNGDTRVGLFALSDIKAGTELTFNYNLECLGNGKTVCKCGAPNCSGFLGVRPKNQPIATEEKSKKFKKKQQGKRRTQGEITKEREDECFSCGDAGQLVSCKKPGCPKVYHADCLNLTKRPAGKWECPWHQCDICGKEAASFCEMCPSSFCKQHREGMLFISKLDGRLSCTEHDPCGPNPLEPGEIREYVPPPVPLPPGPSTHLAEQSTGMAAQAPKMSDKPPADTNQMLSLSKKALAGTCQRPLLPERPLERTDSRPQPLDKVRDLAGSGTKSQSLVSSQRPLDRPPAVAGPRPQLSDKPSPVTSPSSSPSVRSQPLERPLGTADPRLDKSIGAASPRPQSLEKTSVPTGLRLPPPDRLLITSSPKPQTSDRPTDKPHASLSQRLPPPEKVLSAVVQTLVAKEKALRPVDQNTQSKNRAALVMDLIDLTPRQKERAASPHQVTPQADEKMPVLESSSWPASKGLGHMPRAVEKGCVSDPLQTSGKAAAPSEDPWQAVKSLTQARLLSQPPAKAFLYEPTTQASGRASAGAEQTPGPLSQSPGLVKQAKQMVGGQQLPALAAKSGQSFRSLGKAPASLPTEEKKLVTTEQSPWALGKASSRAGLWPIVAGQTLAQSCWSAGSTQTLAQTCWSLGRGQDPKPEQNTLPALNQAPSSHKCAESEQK
Sequence of Glycogen synthase kinase-3 alpha (P49840 2-483 limits assumed): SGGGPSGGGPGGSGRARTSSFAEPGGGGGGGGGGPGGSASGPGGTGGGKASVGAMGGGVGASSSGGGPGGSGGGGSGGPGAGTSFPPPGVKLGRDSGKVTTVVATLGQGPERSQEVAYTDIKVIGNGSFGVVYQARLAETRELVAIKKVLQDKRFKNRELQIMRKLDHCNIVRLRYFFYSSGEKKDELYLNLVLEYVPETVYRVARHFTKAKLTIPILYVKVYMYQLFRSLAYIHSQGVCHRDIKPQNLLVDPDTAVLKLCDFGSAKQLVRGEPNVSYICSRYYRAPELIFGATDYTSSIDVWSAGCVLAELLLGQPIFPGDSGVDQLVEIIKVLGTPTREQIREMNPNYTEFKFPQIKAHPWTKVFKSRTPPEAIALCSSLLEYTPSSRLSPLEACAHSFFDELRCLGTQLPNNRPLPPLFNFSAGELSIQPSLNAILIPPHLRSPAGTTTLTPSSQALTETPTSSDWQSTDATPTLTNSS
Sequence of Phosphatidylinositol 4-phosphate 5-kinase type-1 alpha (Homo sapiens) (Q99755 whole entry): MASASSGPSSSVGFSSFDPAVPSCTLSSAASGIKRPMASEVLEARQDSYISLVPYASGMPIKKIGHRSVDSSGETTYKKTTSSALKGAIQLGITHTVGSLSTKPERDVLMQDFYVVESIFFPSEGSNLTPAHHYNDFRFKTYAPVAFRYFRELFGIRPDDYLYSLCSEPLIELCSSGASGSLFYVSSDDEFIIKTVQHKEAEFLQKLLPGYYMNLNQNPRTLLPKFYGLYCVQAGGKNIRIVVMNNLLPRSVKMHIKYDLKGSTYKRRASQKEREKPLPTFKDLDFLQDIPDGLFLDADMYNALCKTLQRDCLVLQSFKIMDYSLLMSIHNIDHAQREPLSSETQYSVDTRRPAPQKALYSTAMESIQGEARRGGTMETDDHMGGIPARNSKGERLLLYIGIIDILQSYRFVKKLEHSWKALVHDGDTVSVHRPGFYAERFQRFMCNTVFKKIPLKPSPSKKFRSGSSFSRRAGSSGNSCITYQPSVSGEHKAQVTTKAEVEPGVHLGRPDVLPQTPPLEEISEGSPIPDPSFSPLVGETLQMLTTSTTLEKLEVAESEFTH

CCN(CC)CCCCNc1ncc2cc(-c3cc(OC)cc(OC)c3)c(NC(=O)NC(C)(C)C)nc2n1
% of control [1]: 100%

COc1cc(N(C)c2ccnc3ccc(C(F)(F)F)cc23)cc(OC)c1OC
% binding [2]: 92%

Cc1cc([C@@H](C)Nc2ccccc2C(=O)O)c2nc(N3CCOCC3)cc(=O)n2c1 [AZD-6482]
% of control [3]: 99%
% of control [4]: 100%

Cn1cc(-n2cnc3c(NCc4nc5cc(Cl)c(Cl)cc5[nH]4)nc(N4CCOCC4)nc32)cn1
% of control [5]: -1.87%

COc1cc(C(=O)N2CC[C@@H](O)[C@@H](N)C2)cc2nc(-c3cc4ccccc4n3CC3CC3)n(C)c12
XC50 (KCNQ1): > 25.1 µM

COc1cc(Nc2nc(C)cc(-c3cnn4nc(OC)ccc34)n2)cc(C(F)(F)F)c1
% of control [6]: 100%

Cc1cc(C)cc([C@@H]2c3cc(C)ccc3NC(=O)CN2C(=O)c2ccc(Br)s2)c1
% of activity ([7]; at 1 µM): 97%
% of activity ([7]; at 10 µM): 103%

Cc1cc(F)c(C(=O)Nc2cccc(-c3nncn3C(C)C)n2)cc1-n1cnc(C2CC2)c1
% of control [8]: 100%

O[C@H]1CC[C@H](Nc2ncc3nc(Nc4c(F)cc(F)cc4F)n([C@H]4CCOC4)c3n2)CC1
% of control [9]: 100%

CN(C)C/C=C/C(=O)Nc1ccc(C(=O)N2CCCC(Nc3ncc(Cl)c(-c4c[nH]c5ccccc45)n3)C2)cc1 (configuration not stated)
% of control [10]: 100%
